Measurements reported in the CheMixHub viscosity set.
± gives the uncertainty stated by the source.

Test: xn = mol fraction of the nth substance listed
Conditions: 101 kPa

CCNc1ccccc1 + COC(C)(C)C
viscosity [mPa·s]
Conditions	293.15 K	298.15 K	303.15 K	308.15 K	313.15 K	318.15 K
x1 = 0.0583	0.428 ± 0.05	0.412 ± 0.05	0.395 ± 0.05	0.374 ± 0.05	0.351 ± 0.05	0.325 ± 0.05
x1 = 0.1047	0.465 ± 0.05	0.445 ± 0.05	0.425 ± 0.05	0.401 ± 0.05	0.376 ± 0.05	0.348 ± 0.05
x1 = 0.1493	0.503 ± 0.05	0.479 ± 0.05	0.455 ± 0.05	0.429 ± 0.05	0.402 ± 0.05	0.371 ± 0.05
x1 = 0.2021	0.552 ± 0.05	0.523 ± 0.05	0.495 ± 0.05	0.465 ± 0.05	0.434 ± 0.05	0.4 ± 0.05
x1 = 0.2544	0.605 ± 0.05	0.57 ± 0.05	0.537 ± 0.05	0.503 ± 0.05	0.469 ± 0.05	0.432 ± 0.05
x1 = 0.3064	0.663 ± 0.05	0.621 ± 0.05	0.583 ± 0.05	0.544 ± 0.05	0.506 ± 0.05	–
x1 = 0.3508	0.718 ± 0.05	0.668 ± 0.05	0.625 ± 0.05	0.582 ± 0.05	0.54 ± 0.05	–
x1 = 0.4031	0.787 ± 0.05	0.728 ± 0.05	0.678 ± 0.05	0.63 ± 0.05	0.584 ± 0.05	–
x1 = 0.45	0.855 ± 0.05	0.787 ± 0.05	0.73 ± 0.05	0.677 ± 0.05	0.625 ± 0.05	–
x1 = 0.5021	0.938 ± 0.05	0.858 ± 0.05	0.793 ± 0.05	0.733 ± 0.05	0.675 ± 0.05	–
x1 = 0.5506	1.022 ± 0.05	0.931 ± 0.05	0.857 ± 0.05	0.789 ± 0.05	0.725 ± 0.05	–
x1 = 0.6036	1.123 ± 0.051	1.017 ± 0.05	0.932 ± 0.05	0.856 ± 0.05	0.784 ± 0.05	–
x1 = 0.6519	1.225 ± 0.051	1.103 ± 0.051	1.006 ± 0.05	0.921 ± 0.05	0.843 ± 0.05	–
x1 = 0.701	1.337 ± 0.051	1.197 ± 0.051	1.089 ± 0.05	0.993 ± 0.05	0.907 ± 0.05	–
x1 = 0.7521	1.465 ± 0.051	1.304 ± 0.051	1.181 ± 0.051	1.074 ± 0.05	0.979 ± 0.05	–
x1 = 0.7985	1.592 ± 0.051	1.409 ± 0.051	1.271 ± 0.051	1.153 ± 0.051	1.049 ± 0.05	–
x1 = 0.8501	1.745 ± 0.051	1.536 ± 0.051	1.38 ± 0.051	1.247 ± 0.051	1.132 ± 0.051	–
x1 = 0.9006	1.909 ± 0.051	1.67 ± 0.051	1.493 ± 0.051	1.346 ± 0.051	1.218 ± 0.051	–
x1 = 0.949	2.081 ± 0.051	1.81 ± 0.051	1.612 ± 0.051	1.448 ± 0.051	1.306 ± 0.051	–
